# Test results as given in US11147812B2, “Tyrosine analogues derivatives as Rho-kinase inhibitors” (Chiesi Farmaceutici S.p.A., priority 2017, dated 2021).
# Legend:
# [1] = target: Rho kinase 1 (ROCK1) (Homo sapiens, UniProt Q13464); experiment: In vitro Rho kinase inhibitory activity assay (ADP-Glo), ROCK1; type: biochemical; details: 10 μM ATP, 25° C., Ki by Cheng-Prusoff
# Method: (§1) The effectiveness of compounds of the present invention to inhibit Rho kinase activity can be determined in a 10 μl assay containing 40 mM Tris pH7.5, 20 mM MgCl2 0.1 mg/ml BSA, 50 μM DTT and 2.5 μM peptide substrate (Myelin Basic Protein) using an ADP-Glo kit (Promega). Compounds were dissolved in DMSO such that the final concentration of DMSO was 1% in the assay. All reactions/incubations are performed at 25° C. Compound (2 ul) and either Rho kinase 1 or 2 (4 μl) were mixed and incubated for 30 mins. Reactions were initiated by addition of ATP (4 μl) such that the final concentration of ATP in the assay was 10 μM. After a 1 hour incubation 10 μl of ADP-Glo Reagent was added and after a further 45 minute incubation 20 ul of Kinase Detection Buffer was added and the mixture incubated for a further 30 minutes. The luminescent signal was measured on a luminometer. […] Compounds were tested in dose-response format and the inhibition of kinase activity was calculated at each concentration of compound. To determine the IC50 (concentration of compound required to inhibit 50% of the enzyme activity) data were fit to a plot of % inhibition vs Log10 compound concentration using a sigmoidal fit with a variable slope and fixing the maximum to 100% and the minimum to 0%. To determine the Ki values the Cheng-Prusoff equation was utilized (Ki=IC50/(1+[S]/Km)
# [2] = target: Rho kinase 2 (ROCK2) (Homo sapiens, UniProt O75116); experiment: In vitro Rho kinase inhibitory activity assay (ADP-Glo), ROCK2; type: biochemical; details: 10 μM ATP, 25° C., Ki by Cheng-Prusoff
# Method: as §1
# Sequence of Rho kinase 2 (ROCK2) (O75116 whole entry): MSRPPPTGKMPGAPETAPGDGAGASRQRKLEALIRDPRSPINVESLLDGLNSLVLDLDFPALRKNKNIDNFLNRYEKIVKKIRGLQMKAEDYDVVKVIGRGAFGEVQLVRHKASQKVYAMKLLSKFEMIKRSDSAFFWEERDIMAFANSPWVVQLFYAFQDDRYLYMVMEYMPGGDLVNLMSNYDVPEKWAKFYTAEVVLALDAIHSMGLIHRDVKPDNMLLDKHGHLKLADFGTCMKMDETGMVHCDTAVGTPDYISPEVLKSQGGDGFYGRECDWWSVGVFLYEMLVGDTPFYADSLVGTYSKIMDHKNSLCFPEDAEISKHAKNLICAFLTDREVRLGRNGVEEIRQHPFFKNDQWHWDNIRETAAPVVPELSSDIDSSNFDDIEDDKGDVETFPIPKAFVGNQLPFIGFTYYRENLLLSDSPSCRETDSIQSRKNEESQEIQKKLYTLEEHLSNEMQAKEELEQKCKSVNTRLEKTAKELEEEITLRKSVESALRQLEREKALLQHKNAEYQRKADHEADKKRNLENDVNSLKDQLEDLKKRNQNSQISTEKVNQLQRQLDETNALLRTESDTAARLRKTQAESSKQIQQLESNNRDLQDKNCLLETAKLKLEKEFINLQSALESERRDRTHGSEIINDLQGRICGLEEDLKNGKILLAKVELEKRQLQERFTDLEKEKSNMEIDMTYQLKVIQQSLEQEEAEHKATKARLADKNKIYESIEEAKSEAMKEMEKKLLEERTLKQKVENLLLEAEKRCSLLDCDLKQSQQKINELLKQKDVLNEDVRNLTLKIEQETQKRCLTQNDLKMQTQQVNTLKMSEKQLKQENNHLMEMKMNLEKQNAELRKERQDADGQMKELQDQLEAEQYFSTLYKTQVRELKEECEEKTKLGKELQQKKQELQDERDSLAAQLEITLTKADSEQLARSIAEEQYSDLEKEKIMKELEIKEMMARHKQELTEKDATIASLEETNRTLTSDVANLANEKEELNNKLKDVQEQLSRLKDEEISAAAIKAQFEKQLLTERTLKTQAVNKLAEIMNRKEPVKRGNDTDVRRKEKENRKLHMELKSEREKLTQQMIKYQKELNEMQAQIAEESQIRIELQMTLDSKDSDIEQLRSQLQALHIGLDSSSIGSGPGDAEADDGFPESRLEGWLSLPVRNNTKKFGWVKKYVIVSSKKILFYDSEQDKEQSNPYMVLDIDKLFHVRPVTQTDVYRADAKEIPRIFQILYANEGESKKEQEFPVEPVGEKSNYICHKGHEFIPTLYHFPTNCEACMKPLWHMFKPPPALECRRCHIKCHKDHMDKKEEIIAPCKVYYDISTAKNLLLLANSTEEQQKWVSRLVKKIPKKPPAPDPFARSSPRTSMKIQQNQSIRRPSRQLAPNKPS
# Sequence of Rho kinase 1 (ROCK1) (Q13464 whole entry): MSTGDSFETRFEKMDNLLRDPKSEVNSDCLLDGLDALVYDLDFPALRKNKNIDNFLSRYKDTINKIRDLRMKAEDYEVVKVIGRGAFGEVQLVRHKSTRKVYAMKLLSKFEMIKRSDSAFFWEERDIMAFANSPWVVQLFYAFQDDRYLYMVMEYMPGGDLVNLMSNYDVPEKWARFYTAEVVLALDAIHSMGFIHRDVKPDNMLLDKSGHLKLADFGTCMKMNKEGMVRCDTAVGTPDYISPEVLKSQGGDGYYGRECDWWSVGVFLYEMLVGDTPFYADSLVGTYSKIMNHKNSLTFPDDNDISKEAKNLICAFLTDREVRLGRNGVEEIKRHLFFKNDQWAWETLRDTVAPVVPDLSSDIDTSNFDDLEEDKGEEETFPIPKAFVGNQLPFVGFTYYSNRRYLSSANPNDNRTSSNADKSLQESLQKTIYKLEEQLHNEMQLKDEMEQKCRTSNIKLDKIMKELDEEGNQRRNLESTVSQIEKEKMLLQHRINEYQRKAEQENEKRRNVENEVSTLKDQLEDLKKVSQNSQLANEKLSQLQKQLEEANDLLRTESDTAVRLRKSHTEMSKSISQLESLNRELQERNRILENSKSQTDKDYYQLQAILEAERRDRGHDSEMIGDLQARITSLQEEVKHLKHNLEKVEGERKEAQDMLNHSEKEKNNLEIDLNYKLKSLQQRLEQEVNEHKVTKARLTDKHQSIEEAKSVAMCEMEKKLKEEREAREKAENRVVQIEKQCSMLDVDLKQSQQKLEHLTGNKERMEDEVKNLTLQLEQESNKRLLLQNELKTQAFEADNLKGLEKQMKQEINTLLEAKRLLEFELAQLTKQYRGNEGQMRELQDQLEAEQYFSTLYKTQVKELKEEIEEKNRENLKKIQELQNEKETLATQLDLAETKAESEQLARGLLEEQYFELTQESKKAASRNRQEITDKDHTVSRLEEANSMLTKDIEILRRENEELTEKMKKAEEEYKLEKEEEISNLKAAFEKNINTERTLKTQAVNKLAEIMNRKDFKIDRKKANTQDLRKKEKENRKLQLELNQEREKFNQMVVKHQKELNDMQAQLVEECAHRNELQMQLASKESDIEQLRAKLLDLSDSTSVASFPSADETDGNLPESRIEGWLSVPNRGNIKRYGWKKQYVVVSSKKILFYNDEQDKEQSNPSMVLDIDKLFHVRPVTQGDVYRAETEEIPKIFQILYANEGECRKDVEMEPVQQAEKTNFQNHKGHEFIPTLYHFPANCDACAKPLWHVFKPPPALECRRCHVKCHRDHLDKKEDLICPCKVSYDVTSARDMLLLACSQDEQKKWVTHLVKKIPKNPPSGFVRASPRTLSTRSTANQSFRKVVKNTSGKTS
SMILES,Ki [1],Ki [2]
"Cc1c[nH]c2nccc(Oc3ccc(C4CC(=O)N(CCc5ccncc5)CN4)cc3)c12 (stereo not shown) [Example 40, 6-(4-((3-methyl-1H-pyrrolo[2,3-b]pyridin-4-yl)oxy)phenyl)-3-(2-(pyridin-4-yl)ethyl)tetrahydropyrimidin-4(1H)-one]",> 30 nM,> 30 nM
"Cc1c[nH]c2nccc(Oc3ccc(CC4CNCN(CCCN(C)C)C4=O)cc3F)c12 (stereo not shown) [Example 41, 3-(3-(dimethylamino)propyl)-5-(3-fluoro-4-((3-methyl-1H-pyrrolo[2,3-b]pyridin-4-yl)oxy)benzyl)tetrahydropyrimidin-4(1H)-one]",3 to 30 nM,3 to 30 nM
"COCCCN1CNCC(Cc2ccc(Oc3ccnc4[nH]cc(C)c34)c(F)c2)C1=O (stereo not shown) [Example 42, 5-(3-fluoro-4-((3-methyl-1H-pyrrolo[2,3-b]pyridin-4-yl)oxy)benzyl)-3-(3-methoxypropyl)tetrahydropyrimidin-4(1H)-one]",> 30 nM,3 to 30 nM
"Cc1c[nH]c2nccc(Oc3ccc(CC4CNCN(CCc5ccncc5)C4=O)cc3F)c12 (stereo not shown) [Example 43, 5-(3-fluoro-4-((3-methyl-1H-pyrrolo[2,3-b]pyridin-4-yl)oxy)benzyl)-3-(2-(pyridin-4-yl)ethyl)tetrahydropyrimidin-4(1H)-one]",> 30 nM,> 30 nM
"CN(C)CCCNC(=O)C(CN)Cc1ccc(Oc2ccnc3[nH]cc(C#N)c23)cc1 (stereo not shown) [Example 44, 3-amino-2-(4-((3-cyano-1H-pyrrolo[2,3-b]pyridin-4-yl)oxy)benzyl)-N-(3-(dimethylamino)propyl)propanamide]",< 3 nM,< 3 nM
"CN1CCC(N2CNCC(Cc3ccc(Oc4ccnc5[nH]cc(C#N)c45)cc3)C2=O)CC1 (stereo not shown) [Example 47, 4-(4-((1-(1-methylpiperidin-4-yl)-6-oxohexahydropyrimidin-5-yl)methyl)phenoxy)-1H-pyrrolo[2,3-b]pyridine-3-carbonitrile]",3 to 30 nM,3 to 30 nM
"CN1C[C@@H]2C[C@H]1CN2C(=O)C(CN)Cc1ccc(Oc2ccnc3[nH]cc(C#N)c23)cc1 (stereo partly drawn) [Example 48, 4-(4-(2-(aminomethyl)-3-((1S,4S)-5-methyl-2,5-diazabicyclo[2.2.1]heptan-2-yl)-3-oxopropyl)phenoxy)-1H-pyrrolo[2,3-b]pyridine-3-carbonitrile]",3 to 30 nM,< 3 nM

# Continued, values first:
Ki [1],Ki [2],SMILES
> 30 nM,> 30 nM,"COCCCN1CNC(c2ccc(Oc3ccnc4[nH]cc(C)c34)cc2)CC1=O (stereo not shown) [Example 39, 3-(3-methoxypropyl)-6-(4-((3-methyl-1H-pyrrolo[2,3-b]pyridin-4-yl)oxy)phenyl)tetrahydropyrimidin-4(1H)-one]"
3 to 30 nM,3 to 30 nM,"CN(C)CCCN1CNCC(Cc2ccc(Oc3ccnc4[nH]cc(C#N)c34)cc2)C1=O (stereo not shown) [Example 45, 4-(4-((1-(3-(dimethylamino)propyl)-6-oxohexahydropyrimidin-5-yl)methyl)phenoxy)-1H-pyrrolo[2,3-b]pyridine-3-carbonitrile]"
< 3 nM,< 3 nM,"CN1CCC(NC(=O)C(CN)Cc2ccc(Oc3ccnc4[nH]cc(C#N)c34)cc2)CC1 (stereo not shown) [Example 46, 3-amino-2-(4-((3-cyano-1H-pyrrolo[2,3-b]pyridin-4-yl)oxy)benzyl)-N-(1-methylpiperidin-4-yl)propanamide]"
3 to 30 nM,< 3 nM,"N#Cc1c[nH]c2nccc(Oc3ccc(CC(CN)C(=O)N4CCN(Cc5ccccn5)CC4)cc3)c12 (stereo not shown) [Example 49, 4-(4-(2-(aminomethyl)-3-oxo-3-(4-(pyridin-2-ylmethyl)piperazin-1-yl)propyl)phenoxy)-1H-pyrrolo[2,3-b]pyridine-3-carbonitrile]"
